Values of other authors, collected in PMC9835671 (The Pediatric Infectious Disease Journal, 2022).
Values after ≈ are worked out from the molar mass of the structure shown. Where two headings read alike, the source gives them in different places.

Experiments:
S aureus [1] = conditions: neutropenic murine thigh infection model
S aureus [2] = system: S aureus
[3] = adults
ABSSSI = conditions: for Clinical response: microbiological ITT population
S aureus [4] = conditions: adult popPK model; 1000-mg (double-dose) and 1500-mg (single-dose) doses; MIC ≤2 mg/L
serum albumin = conditions: intravenously administered

- 24-hour fAUC/MIC target for bacterial stasis (S aureus [1]): 27.1 h
- MIC90 (S aureus [2]; against S aureus): 0.03 µg/mL (≈ 0.0165 µM)
- terminal elimination half-life (t1/2) [3]: > 14 days
- bound to serum albumin (serum albumin): ~ 93%
- unbound form (serum albumin): 7%
Structure (SMILES): CN[C@H]1C(=O)N[C@@H]2Cc3ccc(cc3)Oc3cc4cc(c3O[C@@H]3O[C@H](C(=O)O)[C@@H](O)[C@H](O)[C@H]3NC(=O)CCCCCCCCC(C)C)Oc3ccc(cc3Cl)[C@@H](O)[C@@H]3NC(=O)[C@H](NC(=O)[C@@H]4NC(=O)[C@@H](NC2=O)c2cc(cc(O)c2Cl)Oc2cc1ccc2O)c1ccc(O)c(c1)-c1c(O[C@H]2O[C@H](CO)[C@@H](O)[C@H](O)[C@@H]2O)cc(O)cc1[C@@H](C(=O)NCCCN(C)C)NC3=O [dalbavancin]
- CLSI susceptibility breakpoint (S aureus [2]; Clinical and Laboratory Standards Institute): 0.25 µg/mL
- Clinical response (ABSSSI; double-dose regimen, end-of-treatment): 97.3%
- Clinical response (ABSSSI; double-dose regimen, follow-up): 97.3%
- Clinical response (ABSSSI; single-dose regimen, end-of-treatment): 94.8%
- Clinical response (ABSSSI; single-dose regimen, follow-up): 97.4%
- patients who achieved a clinical cure (ABSSSI; test-of-cure): > 96%
- simulated patients predicted to achieve the stasis target (S aureus [4]): > 99%
